Source: paper PMC8776063, “Aurora Kinase A Is Involved in Controlling the Localization of Aquaporin-2 in Renal Principal Cells” (International Journal of Molecular Sciences, 2022)
Like-named read-outs stand apart in the source and are kept apart here.

Tests used:
[1] = molecular target: T1, CDK2 (Homo sapiens, UniProt P24941); assay: Thermal shift assay; assay type: binding; conditions: read-out: ΔTm CDK2
T1 construct: purchased in-house thermal shift (DSF) kinase panel (SGC Frankfurt); Promega NanoBRET for AURKA/B/C

[2] = molecular target: T2, CSNK1D (Homo sapiens, UniProt P48730); assay: Thermal shift assay; assay type: binding; conditions: read-out: ΔTm CSNK1D
T2 construct: purchased in-house thermal shift (DSF) kinase panel (SGC Frankfurt); Promega NanoBRET for AURKA/B/C
T2 sequence (P48730 1-294): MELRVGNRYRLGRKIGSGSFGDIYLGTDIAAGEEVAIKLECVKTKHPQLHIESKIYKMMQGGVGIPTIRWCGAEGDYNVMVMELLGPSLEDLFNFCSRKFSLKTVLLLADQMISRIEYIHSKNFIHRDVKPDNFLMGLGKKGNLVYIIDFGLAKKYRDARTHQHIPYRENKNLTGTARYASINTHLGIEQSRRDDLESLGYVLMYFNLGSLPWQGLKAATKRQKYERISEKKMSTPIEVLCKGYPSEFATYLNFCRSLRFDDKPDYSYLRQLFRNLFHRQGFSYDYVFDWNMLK

[3] = molecular target: T3, DYRK1A (Homo sapiens, UniProt Q13627); assay: Thermal shift assay; assay type: binding; conditions: read-out: ΔTm DYRK1A
T3 construct: purchased in-house thermal shift (DSF) kinase panel (SGC Frankfurt); Promega NanoBRET for AURKA/B/C

[4] = molecular target: T4, GRK5 (Homo sapiens, UniProt P34947); assay: Thermal shift assay; assay type: binding; conditions: read-out: ΔTm GRK5
T4 construct: purchased in-house thermal shift (DSF) kinase panel (SGC Frankfurt); Promega NanoBRET for AURKA/B/C

[5] = molecular target: T5, GSG2 (Homo sapiens, UniProt Q8TF76); assay: Thermal shift assay; assay type: binding; conditions: read-out: ΔTm GSG2
T5 construct: purchased in-house thermal shift (DSF) kinase panel (SGC Frankfurt); Promega NanoBRET for AURKA/B/C
T5 sequence (Q8TF76 465-798): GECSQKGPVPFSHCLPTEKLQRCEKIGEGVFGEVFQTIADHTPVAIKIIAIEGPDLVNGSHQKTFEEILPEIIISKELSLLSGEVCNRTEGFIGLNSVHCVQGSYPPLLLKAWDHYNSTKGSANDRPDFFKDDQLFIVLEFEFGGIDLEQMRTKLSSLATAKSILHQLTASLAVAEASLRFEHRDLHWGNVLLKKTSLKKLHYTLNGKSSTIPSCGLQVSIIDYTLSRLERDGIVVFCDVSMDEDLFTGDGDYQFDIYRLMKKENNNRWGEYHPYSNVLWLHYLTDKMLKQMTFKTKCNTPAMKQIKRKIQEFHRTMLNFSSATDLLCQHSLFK

[6] = molecular target: T6, MAPK1 (Homo sapiens, UniProt P28482); assay: Thermal shift assay; assay type: binding; conditions: compound 10 µM; n = 3
T6 construct: purchased in-house thermal shift (DSF) kinase panel (SGC Frankfurt); Promega NanoBRET for AURKA/B/C

[7] = molecular target: T7, CAMKK2 (Homo sapiens, UniProt Q96RR4); assay: Thermal shift assay; assay type: binding; conditions: read-out: ΔTm CAMKK2
T7 construct: purchased in-house thermal shift (DSF) kinase panel (SGC Frankfurt); Promega NanoBRET for AURKA/B/C

[8] = molecular target: T8, STK3 (Homo sapiens, UniProt Q13188); assay: Thermal shift assay; assay type: binding; conditions: read-out: ΔTm STK3
T8 construct: purchased in-house thermal shift (DSF) kinase panel (SGC Frankfurt); Promega NanoBRET for AURKA/B/C
T8 sequence (Q13188 16-313): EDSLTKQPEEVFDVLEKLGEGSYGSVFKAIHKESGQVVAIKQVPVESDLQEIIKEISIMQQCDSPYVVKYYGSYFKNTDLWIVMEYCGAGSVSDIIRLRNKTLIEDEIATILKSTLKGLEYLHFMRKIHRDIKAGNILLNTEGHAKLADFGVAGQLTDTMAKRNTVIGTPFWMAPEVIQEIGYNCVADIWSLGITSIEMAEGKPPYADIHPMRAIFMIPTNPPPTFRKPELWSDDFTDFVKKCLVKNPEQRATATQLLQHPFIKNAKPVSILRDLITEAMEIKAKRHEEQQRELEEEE

[9] = molecular target: T9, STK39 (Homo sapiens, UniProt Q9UEW8); assay: Thermal shift assay; assay type: binding; conditions: read-out: ΔTm STK39
T9 construct: purchased in-house thermal shift (DSF) kinase panel (SGC Frankfurt); Promega NanoBRET for AURKA/B/C

[10] = molecular target: T10, PAK4 (Homo sapiens, UniProt O96013); assay: Thermal shift assay; assay type: binding; conditions: read-out: ΔTm PAK4
T10 construct: purchased in-house thermal shift (DSF) kinase panel (SGC Frankfurt); Promega NanoBRET for AURKA/B/C

[11] = molecular target: T11, PIM1 (Homo sapiens, UniProt P11309); assay: Thermal shift assay; assay type: binding; conditions: read-out: ΔTm PIM1
T11 construct: purchased in-house thermal shift (DSF) kinase panel (SGC Frankfurt); Promega NanoBRET for AURKA/B/C

[12] = molecular target: T12, AURKA (Homo sapiens, UniProt O14965); assay: NanoBRET assay in HEK293T cells; assay type: cell-based
T12 construct: full-length wild-type AURKA, AURKB, and AURKC were obtained as plasmids cloned in frame with a C-terminal NanoLuc-fusion; host or cells: HEK293T
T12 sequence (O14965 1-403): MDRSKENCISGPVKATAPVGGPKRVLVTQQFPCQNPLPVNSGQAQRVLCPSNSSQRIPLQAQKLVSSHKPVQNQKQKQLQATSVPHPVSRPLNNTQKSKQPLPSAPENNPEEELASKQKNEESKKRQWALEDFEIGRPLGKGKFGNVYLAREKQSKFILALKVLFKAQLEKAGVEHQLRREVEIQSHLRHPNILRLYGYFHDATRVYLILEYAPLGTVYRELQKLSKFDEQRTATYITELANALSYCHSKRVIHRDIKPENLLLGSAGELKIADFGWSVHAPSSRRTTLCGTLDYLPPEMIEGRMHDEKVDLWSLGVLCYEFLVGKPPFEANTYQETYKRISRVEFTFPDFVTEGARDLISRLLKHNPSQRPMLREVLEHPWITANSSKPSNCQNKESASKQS

[13] = system: MCD4 cells; assay: MTS assay (cell viability); assay type: cell-based, mouse; conditions: 30 µM, 10 µM or 1 µM, 1 h; compared to untreated cells
[14] = system: CFL1 phosphorylation in MCD4 cells; assay: CFL1 phosphorylation, Western blotting; assay type: cell-based, mouse; conditions: compound 30 µM, 1 h; for CFL1 phosphorylation: absence and presence of forskolin; for CFL1 phosphorylation in combination with forskolin: forskolin 30 µM, 30 min
[15] = molecular target: AURKB (Homo sapiens, UniProt Q96GD4); assay: Thermal shift assay; assay type: binding; set-up: full-length wild-type AURKA, AURKB, and AURKC were obtained as plasmids cloned in frame with a C-terminal NanoLuc-fusion; conditions: read-out: ΔTm AURKB
[16] = NanoBRET, HEK293T cells overexpressing the kinase, Table 2, read-out: AURKA IC50

Sequence of AURKB (Q96GD4 whole entry, the tested form may be a part): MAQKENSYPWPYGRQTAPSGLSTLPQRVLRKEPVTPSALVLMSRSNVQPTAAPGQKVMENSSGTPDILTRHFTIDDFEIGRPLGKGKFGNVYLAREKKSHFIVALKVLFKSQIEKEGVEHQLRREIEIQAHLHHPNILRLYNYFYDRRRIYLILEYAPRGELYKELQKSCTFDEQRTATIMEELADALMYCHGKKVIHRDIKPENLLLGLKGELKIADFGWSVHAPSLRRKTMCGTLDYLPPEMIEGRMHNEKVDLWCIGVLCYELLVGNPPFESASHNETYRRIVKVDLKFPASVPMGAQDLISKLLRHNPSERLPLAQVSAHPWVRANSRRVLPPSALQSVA
T10 sequence (O96013 291-591): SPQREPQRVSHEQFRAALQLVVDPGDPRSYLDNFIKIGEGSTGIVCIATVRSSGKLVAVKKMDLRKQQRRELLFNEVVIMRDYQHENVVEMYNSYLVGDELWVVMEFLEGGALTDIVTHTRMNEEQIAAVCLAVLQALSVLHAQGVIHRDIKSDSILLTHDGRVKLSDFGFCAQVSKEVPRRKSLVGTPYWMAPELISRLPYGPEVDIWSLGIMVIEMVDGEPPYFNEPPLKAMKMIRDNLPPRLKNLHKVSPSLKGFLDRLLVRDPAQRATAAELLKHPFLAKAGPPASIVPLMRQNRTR
T7 sequence (Q96RR4 161-449): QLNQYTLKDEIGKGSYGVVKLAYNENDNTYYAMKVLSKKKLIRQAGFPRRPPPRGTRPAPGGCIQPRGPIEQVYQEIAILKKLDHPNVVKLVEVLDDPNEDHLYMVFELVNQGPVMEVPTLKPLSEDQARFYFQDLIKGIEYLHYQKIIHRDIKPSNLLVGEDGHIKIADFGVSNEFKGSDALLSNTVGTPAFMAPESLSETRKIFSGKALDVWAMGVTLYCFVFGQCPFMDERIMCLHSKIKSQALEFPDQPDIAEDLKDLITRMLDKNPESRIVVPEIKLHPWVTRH
T6 sequence (P28482 whole entry): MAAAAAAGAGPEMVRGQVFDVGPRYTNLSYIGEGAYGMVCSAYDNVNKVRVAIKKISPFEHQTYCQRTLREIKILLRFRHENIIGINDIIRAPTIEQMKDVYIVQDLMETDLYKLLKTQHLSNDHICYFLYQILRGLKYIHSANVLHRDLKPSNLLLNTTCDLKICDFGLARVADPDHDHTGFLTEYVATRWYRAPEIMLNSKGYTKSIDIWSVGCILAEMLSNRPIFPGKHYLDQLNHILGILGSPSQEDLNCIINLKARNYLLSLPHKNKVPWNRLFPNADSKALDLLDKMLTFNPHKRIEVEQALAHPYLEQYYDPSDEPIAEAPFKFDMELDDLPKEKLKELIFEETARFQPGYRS
T11 sequence (P11309 whole entry): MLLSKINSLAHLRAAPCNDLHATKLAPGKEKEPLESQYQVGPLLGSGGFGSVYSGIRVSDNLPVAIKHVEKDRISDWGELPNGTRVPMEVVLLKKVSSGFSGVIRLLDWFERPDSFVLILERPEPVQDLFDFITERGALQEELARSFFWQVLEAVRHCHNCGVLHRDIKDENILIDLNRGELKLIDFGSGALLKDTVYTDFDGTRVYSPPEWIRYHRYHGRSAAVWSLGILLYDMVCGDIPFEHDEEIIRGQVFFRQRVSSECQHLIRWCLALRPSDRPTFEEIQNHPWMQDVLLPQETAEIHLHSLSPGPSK
T4 sequence (P34947 186-514): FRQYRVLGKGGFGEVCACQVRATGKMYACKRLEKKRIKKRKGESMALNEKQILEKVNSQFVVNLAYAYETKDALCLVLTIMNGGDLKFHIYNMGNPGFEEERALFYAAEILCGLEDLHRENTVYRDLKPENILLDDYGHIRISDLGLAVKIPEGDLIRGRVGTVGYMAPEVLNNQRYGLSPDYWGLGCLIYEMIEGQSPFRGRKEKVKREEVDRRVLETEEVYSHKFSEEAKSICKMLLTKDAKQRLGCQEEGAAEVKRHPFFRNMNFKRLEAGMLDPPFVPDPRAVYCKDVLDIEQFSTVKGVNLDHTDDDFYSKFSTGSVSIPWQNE

Row | Compound | ΔTm at 10 µM ([1]; compound 10 µM, n = 3) [°C] | ΔTm at 10 µM ([2]; compound 10 µM, n = 3) [°C] | ΔTm at 10 µM ([3]; compound 10 µM, n = 3) [°C] | ΔTm at 10 µM ([4]; compound 10 µM, n = 3) [°C] | ΔTm at 10 µM ([5]; compound 10 µM, n = 3) [°C] | ΔTm at 10 µM [6] [°C] | ΔTm at 10 µM ([7]; compound 10 µM, n = 3) [°C] | ΔTm at 10 µM ([8]; compound 10 µM, n = 3) [°C] | ΔTm at 10 µM ([9]; compound 10 µM, n = 3) [°C] | ΔTm at 10 µM ([10]; compound 10 µM, n = 3) [°C] | ΔTm at 10 µM ([11]; compound 10 µM, n = 3) [°C] | IC50 [12, 16] [nM] | viability of MCD4 cells [13] | CFL1 phosphorylation [14] | ΔTm at 10 µM ([15]; compound 10 µM, n = 3) [°C] | CFL1 phosphorylation in combination with forskolin [14] | also measured
1 | CCN1CCN(C(=O)Cc2ccc(Nc3ncc(F)c(Nc4ccc(C(=O)O)cc4)n3)cc2)CC1 [ERJ2-12] | 0.4 | 0.2 | -1.3 | 0.2 | 0 | -0.1 | 1.8 | 0.1 | 0.2 | 0.1 | 1.1 | > 50000 | does not affect | no effect | -2.5 | – | –
2 | NC(=O)Cc1ccc(Nc2ncc(F)c(Nc3ccc(C(=O)Nc4ccccc4Cl)cc3)n2)cc1 [ERJ2-06] | 4.1 | 0 | 0.8 | 0 | 0.2 | 0.1 | 2.2 | 3.1 | 2.4 | 0.3 | 0.2 | 165 | did not elicit any significant effects | – | 0.5 | Significant additive effects | –
3 | CCN1CCN(C(=O)Cc2ccc(Nc3ncc(F)c(Nc4ccc(C(=O)Nc5ccccc5Cl)cc4)n3)cc2)CC1 [Aurora-A inhibitor I, reference compound] | – | – | – | – | – | 0.4 | – | – | – | – | – | – | did not elicit any significant effects | significantly decreased | – | Significant additive effects | ΔTm at 10 µM [1]: 1.4 °C; ΔTm at 10 µM [2]: 0.2 °C; ΔTm at 10 µM [3]: 0.4 °C; ΔTm at 10 µM [4]: 0.2 °C; ΔTm at 10 µM [5]: 0 °C; ΔTm at 10 µM [7]: 2.3 °C; ΔTm at 10 µM [8]: 2.6 °C; ΔTm at 10 µM [9]: 2.4 °C; ΔTm at 10 µM [10]: 0.8 °C; ΔTm at 10 µM [11]: 0.2 °C; IC50 [12]: 183 nM; ΔTm at 10 µM [15]: -0.5 °C
4 | CCN1CCN(C(=O)Cc2ccc(Nc3ncc(F)c(Nc4ccc(C(=O)Nc5ccccc5)cc4)n3)cc2)CC1 [ERJ2-11] | 2.6 | 0.2 | -0.6 | 0.2 | 0 | -0.1 | 3.1 | 2 | 2.6 | 1.1 | 0.4 | 767 | reduced by 10 or 30 µM | – | -0.2 | Significant additive effects | –
5 | O=C(Cc1ccc(Nc2ncc(F)c(Nc3ccc(C(=O)Nc4ccccc4Cl)cc3)n2)cc1)NCCN1CCOCC1 [ERJ2-04] | 0.7 | 0 | -0.7 | 0.2 | 0 | 0.3 | 1.3 | 1.3 | 2.1 | 0.3 | -0.2 | – | reduced by 10 or 30 µM | – | -0.8 | Significant additive effects | IC50 ([12]; NanoBRET, n = 2, mean, Figure 6B, read-out: affinity to intracellular AURKA): 558 nM
